# System: K24384-001-R-PDC complex spheroid viability
# Test: Anticancer human tumor K24384-001-R-PDC patient-derived pancreatic adenocarcinoma cell line growth inhibition
# Conditions: for IC50: curve of first compound; for viability, T/C: stronger effect = lower value
# Summary of the method: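 Drug combinations with the LSD1 inhibitor iadademstat tested on tumor cells co-cultured as spheroids with endothelial cells and mesenchymal stem cells. Concentrations descended in half-log increments from clinical Cmax or 10 microM.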
# [1] = second compound 0.1 µM, first compound 0.0316 µM
# [2] = second compound 0.1 µM, first compound 0.1 µM
# [3] = second compound 0.1 µM, first compound 0.316 µM
# [4] = second compound 0.1 µM, first compound 1 µM
# [5] = second compound 0.316 µM, first compound 0.0316 µM
# [6] = second compound 0.316 µM, first compound 0.1 µM
# [7] = second compound 0.316 µM, first compound 0.316 µM
# [8] = second compound 0.316 µM, first compound 1 µM
# [9] = second compound 1 µM, first compound 0.0316 µM
# [10] = second compound 1 µM, first compound 0.1 µM
# [11] = second compound 1 µM, first compound 0.316 µM
# [12] = second compound 1 µM, first compound 1 µM
# [13] = second compound 3.16 µM, first compound 0.0316 µM
# [14] = second compound 3.16 µM, first compound 0.1 µM
# [15] = second compound 3.16 µM, first compound 0.316 µM
# [16] = second compound 3.16 µM, first compound 1 µM
# [17] = second compound 10 µM, first compound 0.0316 µM
# [18] = second compound 10 µM, first compound 0.1 µM
# [19] = second compound 10 µM, first compound 0.316 µM
# [20] = second compound 10 µM, first compound 1 µM
# 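Note: spheroids exposed to agents for seven days before luminescence viability reading.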
# 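Throughout, for viability, T/C: 100% = DMSO vehicle control viability.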
structure (smiles),measurement,setting,value
COc1ccc([C@@H](O)c2cc(-c3ncnc4cc(N5CCOCC5)ccc34)c(F)cc2Cl)nn1 + NC1CCC(NC2CC2c2ccccc2)CC1,IC50,second compound 0.1 µM,1040 nM
same,IC50,second compound 0.316 µM,1180 nM
same,IC50,second compound 1 µM,1120 nM
same,IC50,second compound 3.16 µM,1180 nM
same,IC50,second compound 10 µM,516 nM
same,"viability, T/C",[1],94.5%
same,"viability, T/C",[2],114%
same,"viability, T/C",[3],89.8%
same,"viability, T/C",[4],49%
same,"viability, T/C","second compound 0.1 µM, first compound 3.16 µM",30.2%
same,"viability, T/C","second compound 0.1 µM, first compound 10 µM",14.2%
same,"viability, T/C",[5],112%
same,"viability, T/C",[6],87.4%
same,"viability, T/C",[7],69.6%
same,"viability, T/C",[8],59.8%
same,"viability, T/C","second compound 0.316 µM, first compound 3.16 µM",30.8%
same,"viability, T/C","second compound 0.316 µM, first compound 10 µM",13.9%
same,"viability, T/C",[9],79.7%
same,"viability, T/C",[10],98.3%
same,"viability, T/C",[11],79.2%
same,"viability, T/C",[12],50.4%
same,"viability, T/C","second compound 1 µM, first compound 3.16 µM",28.4%
same,"viability, T/C","second compound 1 µM, first compound 10 µM",13.4%
same,"viability, T/C",[13],77.7%
same,"viability, T/C",[14],102%
same,"viability, T/C",[15],77.9%
same,"viability, T/C",[16],55%
same,"viability, T/C","second compound 3.16 µM, first compound 3.16 µM",23.9%
same,"viability, T/C","second compound 3.16 µM, first compound 10 µM",14.7%
same,"viability, T/C",[17],71.3%
same,"viability, T/C",[18],74.8%
same,"viability, T/C",[19],56.7%
same,"viability, T/C",[20],37.7%
same,"viability, T/C","second compound 10 µM, first compound 3.16 µM",22.9%
same,"viability, T/C","second compound 10 µM, first compound 10 µM",12.1%
Nc1ncn(C2CC(O)C(CO)S2)c(=O)n1 (stereo not given) + NC1CCC(NC2CC2c2ccccc2)CC1,IC50,second compound 0.1 µM,> 300 nM
same,IC50,second compound 0.316 µM,> 300 nM
same,IC50,second compound 1 µM,> 300 nM
same,IC50,second compound 3.16 µM,> 300 nM
same,IC50,second compound 10 µM,> 300 nM
same,"viability, T/C","second compound 0.1 µM, first compound 0.000949 µM",92.8%
same,"viability, T/C","second compound 0.1 µM, first compound 0.003 µM",85.4%
same,"viability, T/C","second compound 0.1 µM, first compound 0.00949 µM",93%
same,"viability, T/C","second compound 0.1 µM, first compound 0.03 µM",70.1%
same,"viability, T/C","second compound 0.1 µM, first compound 0.0949 µM",78.1%
same,"viability, T/C","second compound 0.1 µM, first compound 0.3 µM",63.3%
same,"viability, T/C","second compound 0.316 µM, first compound 0.000949 µM",97.4%
same,"viability, T/C","second compound 0.316 µM, first compound 0.003 µM",77.4%
same,"viability, T/C","second compound 0.316 µM, first compound 0.00949 µM",80.6%
same,"viability, T/C","second compound 0.316 µM, first compound 0.03 µM",79.7%
same,"viability, T/C","second compound 0.316 µM, first compound 0.0949 µM",85.1%
same,"viability, T/C","second compound 0.316 µM, first compound 0.3 µM",59.5%
same,"viability, T/C","second compound 1 µM, first compound 0.000949 µM",82.2%
same,"viability, T/C","second compound 1 µM, first compound 0.003 µM",78.1%
same,"viability, T/C","second compound 1 µM, first compound 0.00949 µM",105%
same,"viability, T/C","second compound 1 µM, first compound 0.03 µM",78.5%
same,"viability, T/C","second compound 1 µM, first compound 0.0949 µM",73.5%
same,"viability, T/C","second compound 1 µM, first compound 0.3 µM",65.2%
same,"viability, T/C","second compound 3.16 µM, first compound 0.000949 µM",98.1%
same,"viability, T/C","second compound 3.16 µM, first compound 0.003 µM",97.9%
same,"viability, T/C","second compound 3.16 µM, first compound 0.00949 µM",85%
same,"viability, T/C","second compound 3.16 µM, first compound 0.03 µM",75%
same,"viability, T/C","second compound 3.16 µM, first compound 0.0949 µM",81.7%
same,"viability, T/C","second compound 3.16 µM, first compound 0.3 µM",48.5%
same,"viability, T/C","second compound 10 µM, first compound 0.000949 µM",90.3%
same,"viability, T/C","second compound 10 µM, first compound 0.003 µM",98.6%
same,"viability, T/C","second compound 10 µM, first compound 0.00949 µM",71.2%
same,"viability, T/C","second compound 10 µM, first compound 0.03 µM",79.5%
same,"viability, T/C","second compound 10 µM, first compound 0.0949 µM",69.5%
same,"viability, T/C","second compound 10 µM, first compound 0.3 µM",61.9%
O=C(C=Cn1cnc(-c2cc(C(F)(F)F)cc(C(F)(F)F)c2)n1)NNc1cnccn1 + NC1CCC(NC2CC2c2ccccc2)CC1,IC50,second compound 0.1 µM,29.8 nM
same,IC50,second compound 0.316 µM,47.3 nM
same,IC50,second compound 1 µM,31.4 nM
same,IC50,second compound 3.16 µM,35.1 nM
same,IC50,second compound 10 µM,28.9 nM
same,"viability, T/C","second compound 0.1 µM, first compound 0.00316 µM",72.7%
same,"viability, T/C","second compound 0.1 µM, first compound 0.01 µM",62.3%
same,"viability, T/C",[1],49.8%
same,"viability, T/C",[2],36.2%
same,"viability, T/C",[3],30.7%
same,"viability, T/C",[4],23.9%
same,"viability, T/C","second compound 0.316 µM, first compound 0.00316 µM",75%
same,"viability, T/C","second compound 0.316 µM, first compound 0.01 µM",69.8%
same,"viability, T/C",[5],57.9%
same,"viability, T/C",[6],34.6%
same,"viability, T/C",[7],34%
same,"viability, T/C",[8],21%
same,"viability, T/C","second compound 1 µM, first compound 0.00316 µM",67%
same,"viability, T/C","second compound 1 µM, first compound 0.01 µM",65.1%
same,"viability, T/C",[9],49.8%
same,"viability, T/C",[10],31.3%
same,"viability, T/C",[11],30.3%
same,"viability, T/C",[12],24.3%
same,"viability, T/C","second compound 3.16 µM, first compound 0.00316 µM",64.9%
same,"viability, T/C","second compound 3.16 µM, first compound 0.01 µM",61.2%
same,"viability, T/C",[13],53%
same,"viability, T/C",[14],31.8%
same,"viability, T/C",[15],30.3%
same,"viability, T/C",[16],20.5%
same,"viability, T/C","second compound 10 µM, first compound 0.00316 µM",72.7%
same,"viability, T/C","second compound 10 µM, first compound 0.01 µM",70.5%
same,"viability, T/C",[17],47.2%
same,"viability, T/C",[18],31.5%
same,"viability, T/C",[19],30.8%
same,"viability, T/C",[20],21.6%

# From PubChem BioAssay AID1918949 (Molecular Pharmacology Branch, DTP, NCI, 2023)
